Results as given in patent publication US9302999B2, “Substituted triazoles as herbicides” (E. I. DU PONT DE NEMOURS AND COMPANY, priority 2012, dated 2016).

Tests used:
Format in all cases: in vivo
[1] = system: crabgrass, large (large crabgrass, Digitaria sanguinalis); test: Test A pre-/postemergence: crabgrass, large; details: for Crabgrass, Large plant response rating: Postemergence; for Plant response rating, Crabgrass, Large: Preemergence
Summary of the method: (§1)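 Injury is scored visually on a scale where 0 means no effect and 100 complete control, comparing treated with untreated plants after approximately ten greenhouse days. Both preemergence and postemergence applications are made at the same time.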

[2] = system: foxtail, giant (giant foxtail, Setaria faberii); test: Test A pre-/postemergence: foxtail, giant; details: for Foxtail, Giant plant response rating: Postemergence; for Plant response rating, Foxtail, Giant: Preemergence
Summary of the method: as §1

[3] = system: velvetleaf (Abutilon theophrasti); test: Test A pre-/postemergence: velvetleaf
Summary of the method: as §1

wild oat (Avena fatua) = test: Test C pre-/postemergence: wild oat
Summary of the method: (§2)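 Preemergence on seeds in loam/sand, postemergence on 2–18 cm (1–4-leaf) plants in peat-based medium; compounds in non-phytotoxic solvent with surfactant. After 13–15 days in greenhouse, visual rating versus controls, 0 (no effect) to 100 (complete control).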

[4] = system: galium (catchweed bedstraw, Galium aparine); test: Test C pre-/postemergence: galium
Summary of the method: as §2

corn (Zea mays) = test: Test C pre-/postemergence: corn
Summary of the method: as §2

[5] = system: johnsongrass (Sorghum halepense); test: Test C pre-/postemergence: johnsongrass
Summary of the method: as §2

kochia (Kochia scoparia) = test: Test C pre-/postemergence: kochia
Summary of the method: as §2

[6] = system: lambsquarters (Chenopodium album); test: Test C pre-/postemergence: lambsquarters
Summary of the method: as §2

[7] = system: pigweed (Amaranthus retroflexus); test: Test C pre-/postemergence: pigweed
Summary of the method: as §2

soybean (Glycine max) = test: Test C pre-/postemergence: soybean
Summary of the method: as §2

[8] = system: chickweed (common chickweed, Stellaria media); test: Test C postemergence: chickweed
Summary of the method: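 Visual 0–100 injury score vs untreated controls (0 none, 100 complete control), taken 13–15 d after treatment. Postemergence spray on potted plants, 2–18 cm, 1–4 leaves; greenhouse.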

[9] = 125 g ai/ha, 0 to 100 scale, 0 is no effect, 100 is complete control
[10] = 500 g ai/ha, visual rating on 0 to 100 scale (0 no effect, 100 complete control), approximately ten days
[11] = 125 g ai/ha, 0 to 100 scale where 0 is no effect and 100 is complete control
[12] = 500 g ai/ha, 0 to 100 scale (0 no effect, 100 complete control)
[13] = Postemergence, 31 g ai/ha, scale 0 to 100 (0 no effect, 100 complete control)
[14] = Postemergence, 62 g ai/ha, scale 0 to 100 (0 no effect, 100 complete control)
[15] = Postemergence, 125 g ai/ha, scale 0 to 100, 0 no effect, 100 complete control
[16] = Postemergence, 250 g ai/ha, scale 0 to 100
[17] = Preemergence, 31 g ai/ha, scale of 0 to 100, 0 is no effect, 100 is complete control
[18] = Preemergence, 62 g ai/ha, scale of 0 to 100, 0 is no effect, 100 is complete control
[19] = Preemergence, 125 g ai/ha, scale 0 to 100, 0 no effect, 100 complete control
[20] = Preemergence, 250 g ai/ha, scale 0 to 100, 0 no effect, 100 complete control

## Fc1ccc(-n2nc(Cc3ccnc(C(F)(F)F)c3)c(OCC(F)(F)F)n2)cc1 [Compound 142]
[1]; [9]
  Crabgrass, Large plant response rating: 100
[1]; [10]
  Crabgrass, Large plant response rating: 100
[1]; [11]
  Plant response rating, Crabgrass, Large: 100
[1]; [12]
  Plant response rating, Crabgrass, Large: 100
[2]; [9]
  Foxtail, Giant plant response rating: 100
[2]; [10]
  Foxtail, Giant plant response rating: 100
[2]; [11]
  Plant response rating, Foxtail, Giant: 100
[2]; [12]
  Plant response rating, Foxtail, Giant: 100
[3]; Postemergence, 125 g ai/ha, 0 to 100 scale, 0 is no effect, 100 is complete control
  Plant response rating, Velvetleaf: 100
[3]; Postemergence, 500 g ai/ha, visual rating on 0 to 100 scale (0 no effect, 100 complete control), approximately ten days
  Velvetleaf plant response rating: 100
[3]; Preemergence, 125 g ai/ha, 0 to 100 scale where 0 is no effect and 100 is complete control
  Plant response rating, Velvetleaf: 60
[3]; Preemergence, 500 g ai/ha, 0 to 100 scale (0 no effect, 100 complete control)
  Plant response rating, Velvetleaf: 90
Wild oat (Avena fatua); [13]
  Plant response rating, Oat, Wild: 35
Wild oat (Avena fatua); [14]
  Plant response rating, Oat, Wild: 45
Wild oat (Avena fatua); [15]
  Plant response rating, Oat, Wild: 70
Wild oat (Avena fatua); [16]
  Plant response rating, Oat, Wild: 70
Wild oat (Avena fatua); [17]
  Plant response rating, Oat, Wild: 85
Wild oat (Avena fatua); [18]
  Plant response rating, Oat, Wild: 85
Wild oat (Avena fatua); [19]
  Plant response rating, Oat, Wild: 85
Wild oat (Avena fatua); [20]
  Plant response rating, Oat, Wild: 90
[4]; [13]
  Plant response rating, Galium: 80
[4]; [14]
  Plant response rating, Galium: 80
[4]; [15]
  Plant response rating, Galium: 90
[4]; [16]
  Plant response rating, Galium: 90
[4]; [17]
  Plant response rating, Galium: 60
[4]; [18]
  Plant response rating, Galium: 80
[4]; [19]
  Plant response rating, Galium: 100
[4]; [20]
  Plant response rating, Galium: 100
Corn (Zea mays); [13]
  Plant response rating, Corn: 30
Corn (Zea mays); [14]
  Plant response rating, Corn: 35
Corn (Zea mays); [15]
  Plant response rating, Corn: 35
Corn (Zea mays); [16]
  Plant response rating, Corn: 45
Corn (Zea mays); [17]
  Plant response rating, Corn: 0
Corn (Zea mays); [18]
  Plant response rating, Corn: 5
Corn (Zea mays); [19]
  Plant response rating, Corn: 20
Corn (Zea mays); [20]
  Plant response rating, Corn: 30
[5]; [13]
  Plant response rating, Johnsongrass: 55
[5]; [14]
  Plant response rating, Johnsongrass: 70
[5]; [15]
  Plant response rating, Johnsongrass: 80
[5]; [16]
  Plant response rating, Johnsongrass: 80
[5]; [17]
  Plant response rating, Johnsongrass: 90
[5]; [18]
  Plant response rating, Johnsongrass: 98
[5]; [19]
  Plant response rating, Johnsongrass: 100
[5]; [20]
  Plant response rating, Johnsongrass: 100
Kochia (Kochia scoparia); [13]
  Plant response rating, Kochia: 80
Kochia (Kochia scoparia); [14]
  Plant response rating, Kochia: 90
Kochia (Kochia scoparia); [15]
  Plant response rating, Kochia: 95
Kochia (Kochia scoparia); [16]
  Plant response rating, Kochia: 95
Kochia (Kochia scoparia); [17]
  Plant response rating, Kochia: 55
Kochia (Kochia scoparia); [18]
  Plant response rating, Kochia: 80
Kochia (Kochia scoparia); [19]
  Plant response rating, Kochia: 98
Kochia (Kochia scoparia); [20]
  Plant response rating, Kochia: 100
[6]; [13]
  Plant response rating, Lambsquarters: 80
[6]; [14]
  Plant response rating, Lambsquarters: 98
[6]; [15]
  Plant response rating, Lambsquarters: 98
[6]; [16]
  Plant response rating, Lambsquarters: 98
[6]; [17]
  Plant response rating, Lambsquarters: 80
[6]; [18]
  Plant response rating, Lambsquarters: 90
[6]; [19]
  Plant response rating, Lambsquarters: 95
[6]; [20]
  Plant response rating, Lambsquarters: 98
[7]; [13]
  Plant response rating, Pigweed: 98
[7]; [14]
  Plant response rating, Pigweed: 98
[7]; [15]
  Plant response rating, Pigweed: 98
[7]; [16]
  Plant response rating, Pigweed: 98
[7]; [17]
  Plant response rating, Pigweed: 98
[7]; [18]
  Plant response rating, Pigweed: 98
[7]; [19]
  Plant response rating, Pigweed: 100
[7]; [20]
  Plant response rating, Pigweed: 100
Soybean (Glycine max); [13]
  Plant response rating, Soybean: 50
Soybean (Glycine max); [14]
  Plant response rating, Soybean: 55
Soybean (Glycine max); [15]
  Plant response rating, Soybean: 55
Soybean (Glycine max); [16]
  Plant response rating, Soybean: 55
Soybean (Glycine max); [17]
  Plant response rating, Soybean: 0
Soybean (Glycine max); [18]
  Plant response rating, Soybean: 5
Soybean (Glycine max); [19]
  Plant response rating, Soybean: 5
Soybean (Glycine max); [20]
  Plant response rating, Soybean: 20
[8]; 31 g ai/ha, scale 0 to 100 (0 no effect, 100 complete control)
  Plant response rating, Chickweed: 85
[8]; 62 g ai/ha, scale 0 to 100 (0 no effect, 100 complete control)
  Plant response rating, Chickweed: 98
[8]; 125 g ai/ha, scale 0 to 100, 0 no effect, 100 complete control
  Plant response rating, Chickweed: 98
[8]; 250 g ai/ha, scale 0 to 100
  Plant response rating, Chickweed: 98
